We go through four compounds from patent US20260273078A1, “AN INJECTABLE DELIVERY SYSTEM FOR LONG-ACTING ADMINISTRATION OF DRUGS” (priority 2023, published 2026).

One series deals with proteinase K (Parengyodontium album, UniProt P06873). Description: Biostability after incubation with proteinase K over 28 days. Particulars: up to 28 days. The class given is in vitro ADME. An excerpt: L-peptide NapFFKY(p)G-OH (small circle) and D-peptide NapffkY(p)G-OH (upright triangle) are peptide-only controls that also form hydrogels in response to phosphatase enzymes.
Sequence of proteinase K (P06873 106-384): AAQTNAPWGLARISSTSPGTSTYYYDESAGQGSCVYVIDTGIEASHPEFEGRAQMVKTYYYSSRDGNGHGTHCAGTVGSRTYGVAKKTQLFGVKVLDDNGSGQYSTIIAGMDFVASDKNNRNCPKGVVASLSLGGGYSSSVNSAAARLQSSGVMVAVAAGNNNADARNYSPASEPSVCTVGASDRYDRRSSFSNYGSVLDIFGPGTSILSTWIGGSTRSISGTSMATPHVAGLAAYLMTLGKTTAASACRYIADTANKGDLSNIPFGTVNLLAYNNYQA

A further series has as its system HIV. Particulars: cited from earlier work.

Entries after “also recorded” stand apart in the source; their conditions may differ.

For the compound `NCCCC[C@H](NC(=O)[C@H](Cc1ccccc1)NC(=O)[C@H](Cc1ccccc1)NC(=O)Cc1ccc2ccccc2c1)C(=O)N[C@@H](Cc1ccc(OP(=O)(O)O)cc1)C(=O)NCC(=O)O` [L-peptide, NapFFKY(p)G-OH, reference compound], the “Biostability in the presence of proteinase-K (in words)” value at proteinase K is listed as “degrades rapidly, within hours”.
With `Cc1cn([C@H]2C[C@H](N=[N+]=[N-])[C@@H](CO)O2)c(=O)[nH]c1=O` [zidovudine], the IC50 range in the series on HIV was 0.03 to 0.13 µg/mL.
For the compound “(NPhe)4GGGGKY(p)-OH [PP4G L-peptide variant]”, the “Biostability in the presence of proteinase-K (in words)” value at proteinase K was “breaks down between days; also recorded: breaks down within days”.
Still for that read-out and setting: under “NapffkY(p)G-OH [D-peptides, reference compound]” stands “significant stability after 28 days”.
